Measured values taken from patent US20150182546A1, “THERAPEUTIC AGENT FOR ENHANCING MITOCHONDRIAL FUNCTION” (Mitochondrial Concepts LLC, priority 2013, published 2015).

Experiments:
Assay type in all cases: in vivo, human
[1] = tested on: pseudohypertrophic muscular dystrophy patients; assay: Treatment of pseudohypertrophic muscular dystrophy patients with 4SAS
[2] = tested on: patient of advanced age; assay: Treatment of a patient of advanced age with oral 4SAS; settings: patient in early 70s; oral dosage
[3] = tested on: ALS patient; assay: Treatment of an ALS patient with oral 4SAS; settings: ALS patient previously unable to speak; oral dosage
[4] = Oral administration of adenylosuccinate in clinical trials
Description: The administration of the adenylosuccinate may be accomplished via several approaches. It is possible to administer adenylosuccinate by means of a sub-cutaneous pump. […] Alternatively, adenylosuccinate might be suitably packaged for timed release or trans-dermal application.

Q: For `O=C([O-])C[C@H](Nc1ncnc2c1ncn2[C@@H]1O[C@H](COP(=O)([O-])[O-])[C@@H](O)[C@H]1O)C(=O)[O-].[Na+].[Na+].[Na+].[Na+]` [4SAS, tetrasodium adenylosuccinate], which “Improved?” value ([1]; Patient A, severity 1, therapy 81-89, 1 mg-10 mg, 10-20 mg, 100 mg, 200 mg) is on record?
A: The value was “Yes”.

Q: And the “Improved?” value ([1]; Patient C, severity 3, therapy 81-84, 1 mg-10 mg, 10-20 mg)?
A: The value was “Yes”.

Q: And the “Improved?” value ([1]; Patient D, severity 4, therapy 81-84, 1 mg-10 mg, 10-20 mg)?
A: Its value is “Yes”.

Q: And the “Improved?” value ([1]; Patient E, severity 5, therapy 81-84, 1 mg-10 mg, 10-20 mg)?
A: The value was “Yes”.

Q: And the “Improved?” value ([1]; Patient F, therapy 88-89, 70 mg)?
A: The value was “Yes”.

Q: And the “Improved?” value ([1]; Patient G, therapy 87-89, 150 mg, 333 mg)?
A: The value was “Yes”.

Q: And the “Improved?” value ([1]; Patient H, therapy 88-89, 200 mg, 300 mg)?
A: The value was “Yes”.

Q: And the “Improved?” value ([1]; Patient I, therapy 86-89, 10 mg, 25 mg, 100 mg)?
A: Its value is “Yes”.

Q: And the “Improved?” value ([1]; Patient J, therapy 86-89, 1200 mg)?
A: The value was “Yes”.

Q: And the “Improved?” value ([1]; Patient K, therapy 87-89, 200 mg, 300 mg)?
A: The value was “Yes”.

Q: What about the “Improved?” value ([1]; Patient L, therapy 87-89, dosage small) of the same compound?
A: Its value is “Yes”.

Q: What about the “Improved?” value ([1]; Patient N, therapy 89-89, 300 mg) of the same compound?
A: The value was “Yes”.

Q: What about the “strength and related functionality” value ([1]; thirteen young PMD patients at various stages, intraperitoneal, subcutaneous and oral dosages) of the same compound?
A: The value was “increased strength and related functionality”.

Q: And the energy [2]?
A: The energy was “increased energy”.

Q: And the healing [2]?
A: The healing was “accelerated healing”.

Q: And the posture [2]?
A: Its posture is “improved posture”.

Q: And the capacity to speak [3]?
A: The capacity to speak was “temporarily regained capacity to speak intelligibly”.

Q: For `O=C(O)CC(Nc1ncnc2c1ncn2[C@@H]1O[C@H](COP(=O)(O)O)[C@@H](O)[C@H]1O)C(=O)O` (stereo partly drawn) [adenylosuccinate], which “efficacy of oral administration” value [4] is on record?
A: The value was “proven efficacious”.
